pIC50: −log10 of the molar value. Where two headings read alike, the source gives them in different places.
What was measured:
B16F10 cells = assay: Cell proliferation assay (alamarBlue), B16F10; assay type: cell-based; conditions: Mus musculus, B16-F10, Melanoma (BRAF wild-type), 96 hours, inhibition of cell proliferation
Procedure: (§1) In accordance with the invention, the ability of the substances to inhibit cell proliferation was determined Cell viability was determined by means of the alamarBlue® reagent (Invitrogen) in a Victor X3 Multilabel Reader (Perkin Elmer). The excitation wavelength was 530 nm and the emission wavelength […].
The B16F10 cells (ATCC, CRL-6475) were sown at a concentration of 300-500 cells/well in 100 μl of growth medium (DMEM with phenol red, 10% FCS) on 96-well microtitre plates.
(§2) The MDA-MB-231 cells (DSMZ, ACC 732) were sown at a concentration of 4000 cells/well in 100 μl of growth medium (DMEM/Ham's F12 medium, 10% FCS) on 96-well microtitre plates. After overnight incubation at 37° C., the fluorescence values (CI values) were determined. Then the plates were treated with various substance dilutions (1E-5 M, 3E-6 M, 1E-6 M, 3E-7 M, 1E-7 M, 3E-8 M, 1E-8 M) and incubated at 37° C. for 72 (MV-4-11, LOX-IMVI cells), 96 (MOLM-13, B16F10, […] cells), 120 (MOLP-8, KMS-12-PE cells) or 168 (LAPC-4 cells) hours. Subsequently, the fluorescence values were determined (CO values). For the data analysis, the CI values were subtracted from the CO values and the results were compared between cells which had been treated with various dilutions of the substance or only with buffer solution. The ICso values (substance concentration needed for 50% inhibition of cell proliferation) were calculated therefrom.
(§3) The substances were tested in the cell lines in Table 1, which represent the indications specified by way of example: […]

MOLP-8 cells = assay: Cell proliferation assay (alamarBlue), MOLP-8; assay type: cell-based; conditions: Homo sapiens, Multiple myeloma, 120 hours, inhibition of cell proliferation
Procedure: as §1
The MOLP-8 cells (DSMZ, ACC 569) were sown at a concentration of 4000 cells/well in 100 μl of growth medium (RPMI1640, 20% FCS) on 96-well microtitre plates.
as §2, §3

MOLM-13 cells = assay: Cell proliferation assay (alamarBlue), MOLM-13; assay type: cell-based; conditions: Homo sapiens, Leukaemia, 96 hours, inhibition of cell proliferation
Procedure: as §1
The MOLM-13 cells (DSMZ, ACC 554) were sown at a concentration of 4000 cells/well in 100 μl of growth medium (RPMI1640, 10% FCS) on 96-well microtitre plates.
as §2, §3

LAPC-4 cells = assay: Cell proliferation assay (alamarBlue), LAPC-4; assay type: cell-based; conditions: Homo sapiens, LAPC4, Prostate, 1 nM methyltrienolone, 168 hours, inhibition of cell proliferation
Procedure: as §1
The LAPC-4 cells (ATCC, PTA-1441TM) were sown at a concentration of 4000 cells/well in 100 μl of growth medium (RPMI1640, 2 mM L-glutamine, 10% cFCS) on 96-well microtitre plates. One day later, the LAPC-4 cells were treated with 1 nM methyltrienolone and various substance dilutions.
as §2, §3

MDA-MB-231 cells = assay: Cell proliferation assay (alamarBlue), MDA-MB-231; assay type: cell-based; conditions: Homo sapiens, Breast, 96 hours, inhibition of cell proliferation
Procedure: as §1, §2, §3

BRD4 (BD1) = target: T1, BRD4 (BD1) (Homo sapiens, UniProt O60885); assay: Binding assay BRD4/acetylated peptide H4 (TR-FRET protein-protein interaction assay)
T1 construct: amino acids 67-152, longer constructs also being possible, preferably amino acids 44-168; made in house; host or cells: E. coli
From the text: To assess the BRD4 binding strength of the substances described in this application, the ability thereof to inhibit the interaction between BRD4 (BD1) and acetylated histone H4 in a dose-dependent manner was quantified.
For this purpose, a time-resolved fluorescence resonance energy transfer (TR-FRET) assay was used, which measures the binding between N-terminally His6-tagged BRD4 (BD1) (amino acids 67-152, longer constructs also being possible, preferably amino acids 44-168) and a synthetic acetylated histone H4 (Ac-H4) peptide with sequence GRGK(Ac)GGK(Ac)GLGK(Ac)GGAK(Ac)RHGSGSK-biotin. The recombinant BRD4 protein produced in-house according to Filippakopoulos et al., Nature, 2010, 468:1119-1123 was expressed in E. coli and purified by means of (Ni-NTA) affinity and (Sephadex G-75) size exclusion chromatography. The Ac-H4 peptide can be purchased, for example, from Biosyntan (Berlin, Germany).
In the assay, typically 11 different concentrations of each substance (0.1 nM, 0.33 nM, 1.1 nM, 3.8 nM, 13 nM, 44 nM, 0.15 μM, 0.51 μM, 1.7 μM, 5.9 μM and 20 μM) were analysed as duplicates on the same microtitre plate. For this purpose, 100-fold concentrated solutions in DMSO were prepared by serial dilutions (1:3.4) of a 2 mM stock solution into a clear, 384-well microtitre plate (Greiner Bio-One, Frickenhausen, Germany). From this, 50 nl were transferred into a black test plate (Greiner Bio-One, Frickenhausen, Germany). The test was started by the addition of 2 μl of a 2.5-fold concentrated BRD4 solution (final concentration typically 10 nM in the 5 μl of reaction volume) in aqueous assay buffer [50 mM HEPES pH 7.5, 50 mM sodium chloride (NaCl), 0.25 mM CHAPS and 0.05% serum albumin (BSA)] to the substances in the test plate. This was followed by a 10-minute incubation step at 22° C. for the pre-equilibration of putative complexes between BRD4 and the substances.
The mixture was then incubated in the dark at 22° C. for one hour and then at 4° C. for at least 3 hours and for no longer than overnight. The formation of BRD4/Ac-H4 complexes was determined by the measurement of the resonance energy transfer from the streptavidin-Eu cryptate to the anti-6His-XL665 antibody present in the reaction. For this purpose, the fluorescence emission was measured at 620 nm and 665 nm after excitation at 330-350 nm in a TR-FRET measuring instrument, for example a Rubystar or Pherastar (both from BMG Lab Technologies, Offenburg, Germany) or a Viewlux (Perkin-Elmer). The ratio of the emissions at 665 nm and at 622 nm was taken as an indicator of the amount of BRD4/Ac-H4 complexes formed.
The data (ratios) obtained were normalized, with 0% inhibition corresponding to the mean from the measurements for a set of controls (typically 32 data points) in which all the reagents were present. In these, in place of test substances, 50 nl of DMSO (100%) were used Inhibition of 100% corresponded to the mean from the measurements for a set of controls (typically 32 data points) in which all the reagents except BRD4 were present. The IC50 was determined by regression analysis based on a 4-parameter equation (minimum, maximum, IC50, Hill; Y=max+(min−max)/(1+(X/IC50)^Hill)).

[1] = BRD4 (BD1) / acetylated histone H4 peptide, TR-FRET, read-out: IC50 (BRD4)

COC(=O)C[C@@H]1N=C(c2ccc(Cl)cc2)c2c(cn(C)c2C)-n2c(C)nnc21 [Example 1]
pIC50 (B16F10 cells): 7.10
pIC50 (MOLP-8 cells): 7.30
pIC50 (MOLM-13 cells): 6.89
pIC50 (LAPC-4 cells): 7.30
pIC50 (MDA-MB-231 cells): 7.05
pIC50 (BRD4 (BD1)): 8.00

COC(=O)C[C@@H]1N=C(c2ccccc2)c2c(cn(C)c2C)-n2c(C)nnc21 [Example 2, 2-(4S)-(1,7,8-Trimethyl-6-phenyl-4,8-dihydropyrrolo[3,4f][1,2,4]triazolo[4,3-a][1,4]diazepin-4-yl)acetic acid methyl ester]
pIC50 (B16F10 cells): 7.10
pIC50 (MOLM-13 cells): 6.48
pIC50 (LAPC-4 cells): 7.52
pIC50 (MDA-MB-231 cells): 7.05
pIC50 (BRD4 (BD1)): 8.00

Cc1noc(C[C@@H]2N=C(c3ccc(Cl)cc3)c3c(cn(C)c3C)-n3c(C)nnc32)n1 [Example 26, (4S)-6-(4-Chlorophenyl)-1,7,8-trimethyl-4-[(3-methyl-1,2,4-oxadiazol-5-yl)methyl]-4,8-dihydropyrrolo[3,4-f][1,2,4]triazolo[4,3-a][1,4]diazepine]
pIC50 (MOLP-8 cells): 7.30
pIC50 (MOLM-13 cells): 7.10
pIC50 (BRD4 (BD1); [1]): 7.70

Cc1c2c(cn1C)-n1c(C)nnc1[C@H](CC(=O)N(C)CC1(C)COC1)N=C2c1ccc(Cl)cc1 [Example 11, (−)-2-[(4S)-6-(4-Chlorophenyl)-1,7,8-trimethyl-4,8-dihydropyrrolo[3,4f][1,2,4]triazolo[4,3-a][1,4]diazepin-4-yl]-N-methyl-N-[(3-methyloxetan-3-yl)methyl]acetamide]
pIC50 (B16F10 cells): 5.85
pIC50 (MOLM-13 cells): 5.70
pIC50 (LAPC-4 cells): 6.09
pIC50 (BRD4 (BD1); [1]): 6.66

Cc1c2c(cn1C)-n1c(C)nnc1[C@H](CC(=O)N1CCS(=O)(=O)CC1)N=C2c1ccc(Cl)cc1 [Example 8, (−)-2-[(4S)-6-(4-Chlorophenyl)-1,7,8-trimethyl-4,8-dihydropyrrolo[3,4f][1,2,4]triazolo[4,3-a][1,4]diazepin-4-yl]-1-(1,1-dioxidothiomorpholino)ethan-1-one]
pIC50 (B16F10 cells): 6.17
pIC50 (MOLP-8 cells): 6.36
pIC50 (MOLM-13 cells): 6.25
pIC50 (LAPC-4 cells): 6.44
pIC50 (BRD4 (BD1); [1]): 7.00

COC(=O)C[C@@H]1N=C(c2ccc(Cl)cc2)c2nn(C)cc2-n2c(C)nnc21 [Example 6, 2-[(4S)-6-(4-Chlorophenyl)-1,8-dimethyl-4,8-dihydropyrazolo[3,4-f][1,2,4]triazolo[4,3-a][1,4]diazepin-4-yl]acetic acid methyl ester]
pIC50 (B16F10 cells): 6.26
pIC50 (MOLP-8 cells): 6.35
pIC50 (MOLM-13 cells): 6.35
pIC50 (LAPC-4 cells): 6.60
pIC50 (BRD4 (BD1)): 6.85

Cc1nnc2n1-c1cn(C)nc1C(c1ccc(Cl)cc1)=NC2CC(=O)N1CCS(=O)(=O)CC1 (centres unmarked) [Example 14, 2-[6-(4-Chlorophenyl)-1,8-dimethyl-4,8-dihydropyrazolo[3,4-f][1,2,4]triazolo[4,3-a][1,4]diazepin-4-yl]-1-(1,1-dioxidothiomorpholin-4-yl)ethanone]
pIC50 (MOLP-8 cells): 5.40
pIC50 (MOLM-13 cells): 5.46
pIC50 (BRD4 (BD1); [1]): 6.19

COC(=O)C[C@@H]1N=C(c2ccc(Cl)cc2)c2c(cnn2C)-n2c(C)nnc21 [Example 7, 2-[(4S)-6-(4-Chlorophenyl)-1,7-dimethyl-4,7-dihydropyrazolo[3,4-f][1,2,4]triazolo[4,3-a][1,4]diazepin-4-yl]acetic acid methyl ester]
pIC50 (MOLP-8 cells): 6.35
pIC50 (MOLM-13 cells): 6.13
pIC50 (BRD4 (BD1)): 6.64

Cc1c2c(cn1C)-n1c(C)nnc1[C@H](Cc1nc(C(C)C)no1)N=C2c1ccc(Cl)cc1 [Example 30, (4S)-6-(4-Chlorophenyl)-1,7,8-trimethyl-4-{[3-(propan-2-yl)-1,2,4-oxadiazol-5-yl]methyl}-4,8-dihydropyrrolo[3,4-f][1,2,4]triazolo[4,3-a][1,4]diazepine]
pIC50 (MOLP-8 cells): 7.30
pIC50 (MOLM-13 cells): 7.15
pIC50 (BRD4 (BD1); [1]): 7.52

Cc1c2c(cn1C)-n1c(C)nnc1[C@H](CC(=O)N1CCC(=O)C1)N=C2c1ccc(Cl)cc1 [Example 12]
pIC50 (B16F10 cells): 6.22
pIC50 (MOLM-13 cells): 6.32
pIC50 (LAPC-4 cells): 6.66
pIC50 (BRD4 (BD1); [1]): 6.96

CCc1noc(C[C@@H]2N=C(c3ccc(Cl)cc3)c3c(cn(C)c3C)-n3c(C)nnc32)n1 [Example 28, (4S)-6-(4-Chlorophenyl)-1,7,8-trimethyl-4-[(3-ethyl-1,2,4-oxadiazol-5-yl)methyl]-4,8-dihydropyrrolo[3,4-f][1,2,4]triazolo[4,3-a][1,4]diazepine]
pIC50 (MOLP-8 cells): 7.40
pIC50 (MOLM-13 cells): 7.15
pIC50 (BRD4 (BD1); [1]): 7.52

Cc1c2c(cn1C)-n1c(C)nnc1[C@H](CC(=O)N1CC(F)C1)N=C2c1ccc(Cl)cc1 [Example 5, (−)-2-[(4S)-6-(4-Chlorophenyl)-1,7,8-trimethyl-4,8-dihydropyrrolo[3,4f][1,2,4]triazolo [4,3-a][1,4]diazepin-4-yl]-1-(3-fluoroazetidin-1-yl)ethan-1-one]
pIC50 (B16F10 cells): 6.24
pIC50 (MOLP-8 cells): 6.43
pIC50 (MOLM-13 cells): 6.28
pIC50 (LAPC-4 cells): 6.43
pIC50 (BRD4 (BD1); [1]): 7.15

Cc1c2c(cn1C)-n1c(C)nnc1[C@H](CC(=O)OC(C)(C)C)N=C2c1ccc(Cl)cc1 [Example 3]
pIC50 (B16F10 cells): 6.72
pIC50 (MOLP-8 cells): 6.72
pIC50 (MOLM-13 cells): 6.68
pIC50 (LAPC-4 cells): 7.00
pIC50 (BRD4 (BD1); [1]): 7.52

Cc1c2c(cn1C)-n1c(C)nnc1[C@H](CC(=O)Nc1ccc3c(c1)CC(=O)N3)N=C2c1ccc(Cl)cc1 [Example 13, 2-[(4S)-6-(4-Chlorophenyl)-1,7,8-trimethyl-4,8-dihydropyrrolo[3,4-f][1,2,4]triazolo[4,3-a][1,4]diazepin-4-yl]-N-(2-oxo-2,3-dihydro-1H-indol-5-yl)acetamide]
pIC50 (B16F10 cells): 6.48
pIC50 (MOLP-8 cells): 6.66
pIC50 (MOLM-13 cells): 6.72
pIC50 (LAPC-4 cells): 7.05
pIC50 (BRD4 (BD1); [1]): 7.40
